Results: patent US20250221966A1, “RXFP1 AGONISTS” (BRISTOL-MYERS SQUIBB COMPANY, priority 2021, published 2025)

Each molecule was assayed against T1, human RXFP1 (Homo sapiens, UniProt Q9HBX9) (assay: RXFP1 cAMP assay (hRXFP1 HEK293 cAMP assay, HTRF)). Details: HEK293 cells stably expressing human RXFP1, 30 min at room temperature, read-out: cAMP hRXFP1 HEK293 Assay EC50.
T1 construct: expressed in transfected cells
T1 sequence (Q9HBX9 1-757): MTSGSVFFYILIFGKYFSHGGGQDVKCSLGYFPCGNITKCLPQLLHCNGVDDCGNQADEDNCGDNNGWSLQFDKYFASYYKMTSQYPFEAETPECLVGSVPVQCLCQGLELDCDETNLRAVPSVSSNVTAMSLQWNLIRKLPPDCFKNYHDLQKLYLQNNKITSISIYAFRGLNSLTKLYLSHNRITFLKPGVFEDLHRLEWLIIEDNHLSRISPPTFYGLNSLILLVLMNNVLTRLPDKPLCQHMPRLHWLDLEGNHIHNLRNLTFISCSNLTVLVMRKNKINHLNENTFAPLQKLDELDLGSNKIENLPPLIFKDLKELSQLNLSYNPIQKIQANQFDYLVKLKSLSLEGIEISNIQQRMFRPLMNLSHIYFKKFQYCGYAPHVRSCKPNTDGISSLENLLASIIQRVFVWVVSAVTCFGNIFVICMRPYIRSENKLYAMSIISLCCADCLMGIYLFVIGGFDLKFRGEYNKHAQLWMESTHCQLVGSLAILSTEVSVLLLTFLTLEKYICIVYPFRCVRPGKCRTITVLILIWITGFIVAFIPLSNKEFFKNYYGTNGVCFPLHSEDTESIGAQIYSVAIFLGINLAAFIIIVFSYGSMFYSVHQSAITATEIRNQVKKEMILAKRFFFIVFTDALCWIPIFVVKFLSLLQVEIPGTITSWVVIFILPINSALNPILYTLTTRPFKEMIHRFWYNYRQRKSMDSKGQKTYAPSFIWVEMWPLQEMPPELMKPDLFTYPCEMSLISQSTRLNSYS
Assay type: cell-based
Experimental: RXFP1 Cyclic Adenosine Monophosphate (cAMP) Assays. […] Cells were dissociated and suspended in assay buffer. The assay buffer was HBSS buffer (with calcium and magnesium) containing 20 mM HEPES, 0.05% BSA, and 0.5 mM IBMX. Cells (3000 cells per well, except 1500 cell per well for HEK293 cells stably expressing human RXFP1) were added to 384-well Proxiplates (Perkin-Elmer). Cells were immediately treated with test compounds in DMSO (2% final) at final concentrations in the range of 0.010 nM to 50 μM. Cells were incubated for 30 min at room temperature. The level of intracellular cAMP was determined using the HTRF HiRange cAMP assay reagent kit (Cisbio) according to manufacturer's instructions. Solutions of cryptate conjugated anti-cAMP and d2 fluorophore-labelled cAMP were made in a supplied lysis buffer separately. Upon completion of the reaction, the cells were lysed with equal volume of the d2-cAMP solution and anti-cAMP solution. […] The potency and activity of a compound to […] cAMP production was then determined by fitting to a 4-parametric logistic equation from a plot of cAMP level versus compound concentrations.

Compound | EC50 [µM]
CCCC#C/C=C1\C2CCC1[C@H](C(=O)Nc1ccc(F)c(C(F)(F)F)c1)[C@@H]2NC(=O)c1cc(F)c(F)cc1OC (some centres unmarked) [compound 135] | 0.37
COc1ccc(C2=NOC3CN(CCO)CC23)cc1C(=O)N[C@H]1[C@@H](C(=O)Nc2ccc(F)c(C(F)(F)F)c2)[C@H]2CC[C@@H]1/C2=C\C1CC1 (single isomer, unassigned) [compound 691] | 0.735
COc1ccc(-c2cc(CC(=O)O)ccc2F)cc1C(=O)N[C@@H]1C2CCC(/C2=C/C2CC2)[C@@H]1C(=O)Nc1ccc(F)c(C(F)(F)F)c1 (some centres unmarked) [compound 189] | 0.01
C=C/C=C1\C2CCC1[C@H](C(=O)Nc1ccc(F)c(C(F)(F)F)c1)[C@@H]2NC(=O)c1cc(-c2cc(C(=O)O)ccc2F)ccc1OC (some centres unmarked) [compound 158] | 0.1
COc1cc(F)c(F)cc1C(=O)N[C@@H]1C2CCC(/C2=C/c2cnn(C)c2)[C@@H]1C(=O)Nc1ccc(F)c(C(F)(F)F)c1 (some centres unmarked) [compound 66] | 1.7
CCOC(=O)/C=C1\C2CCC1[C@H](C(=O)Nc1ccc(F)c(C(F)(F)F)c1)[C@@H]2NC(=O)c1cc(F)c(F)cc1OC (some centres unmarked) [compound 7] | 0.27
COc1ccc(C2=NOC3COCC23)cc1C(=O)N[C@H]1[C@@H](C(=O)NCc2ccnn2C)[C@H]2CC[C@@H]1/C2=C\C1CC1 (some centres unmarked) [compound 707] | 1.33
COc1ccc(C2=NOC3CC(C(C)O)CC23)cc1C(=O)N[C@H]1[C@@H](C(=O)Nc2ccc(F)c(C(F)(F)F)c2)[C@H]2CC[C@@H]1/C2=C\C1CC1 (some centres unmarked) [compound 855] | 0.0045
COc1ccc(-c2cnc3n2CC(O)CC3)cc1C(=O)N[C@H]1[C@@H](C(=O)Nc2ccc(F)c(C(F)(F)F)c2)[C@H]2CC[C@@H]1/C2=C\C1CC1 (some centres unmarked) [compound 752] | 0.0025
COc1ccc(C2=NOC(CO)C2)cc1C(=O)N[C@@H]1C2CCC(/C2=C/C2CC2)[C@@H]1C(=O)Nc1ccc(F)c(C(F)(F)F)c1 (some centres unmarked) [compound 381] | 0.02
CNC(=O)c1ccc(F)c(-c2ccc(OC)c(C(=O)N[C@@H]3C4CCC(/C4=C/c4cnoc4)[C@@H]3C(=O)Nc3ccc(F)c(C(F)(F)F)c3)c2)c1 (some centres unmarked) [compound 165] | 0.04
COc1ccc(C2=NOC3CC(C(O)C(F)(F)F)CC23)cc1C(=O)N[C@H]1[C@@H](C(=O)Nc2ccc(F)c(C(F)(F)F)c2)[C@H]2CC[C@@H]1/C2=C\C1CC1 (some centres unmarked) [compound 853] | 0.0036
COc1ccc(C2=NOC3COCC23)cc1C(=O)N[C@H]1[C@@H](C(=O)Nc2cc(C(F)(F)F)c(F)cc2F)[C@H]2CC[C@@H]1/C2=C\C1CC1 (some centres unmarked) [compound 767] | 0.003
CCC/C=C1\[C@H]2CC[C@@H]1[C@H](C(=O)Nc1ccc(F)c(C(F)(F)F)c1)[C@@H]2NC(=O)c1cc(C2=NOC3CC(CO)CC23)ccc1OC (some centres unmarked) [compound 800] | 0.001
COc1cc(F)c(C2=NOC3COCC23)cc1C(=O)N[C@H]1[C@@H](C(=O)Nc2ccc(F)c(C(F)(F)F)c2)[C@H]2CC[C@@H]1/C2=C\C1CC1 (stereo partly drawn) [Example 419, (1R,2S,3R,4R,Z)-7-(cyclopropylmethylene)-3-(4-fluoro-2-methoxy-5-(3a,4,6,6a-tetrahydrofuro[3,4-d]isoxazol-3-yl)benzamido)-N-(4-fluoro-3-(trifluoromethyl)phenyl)bicyclo[2.2.1]heptane-2-carboxamide] | 0.017
COc1ccc(C2=NO[C@H]3COC[C@@H]23)cc1C(=O)N[C@H]1[C@@H](C(=O)N[C@H](C)C2(C)CC2)[C@H]2CC[C@@H]1/C2=C\C1CC(F)(F)C1 [compound 842] | 0.0049
COc1ccc(-c2cc(C3=NOC(C(=O)O)C3)ccc2F)cc1C(=O)N[C@H]1[C@@H](C(=O)Nc2ccc(F)c(C(F)(F)F)c2)[C@H]2CC[C@@H]1/C2=C\C1CCCC1 (some centres unmarked) [compound 945] | 0.0054
COc1ccc(-c2ccc(F)nc2F)cc1C(=O)N[C@H]1[C@@H](C(=O)Nc2ccc(F)c(C(F)(F)F)c2)[C@H]2CC[C@@H]1C2=C(C)C [compound 106] | 2.7
COc1ccccc1NC(=O)OC(c1ccc(F)c(-c2ccc(OC)c(C(=O)N[C@@H]3C4CCC(/C4=C/C4CC4)[C@@H]3C(=O)Nc3ccc(F)c(C(F)(F)F)c3)c2)c1)C(F)(F)F (some centres unmarked) [compound 225] | 0.003

Compound | EC50 [µM]
COc1ccc(C2=NOC3COCC23)cc1C(=O)N[C@H]1[C@@H](C(=O)NC2(C)CCCC2)[C@H]2CC[C@@H]1/C2=C\C1CC1 (some centres unmarked) [compound 494] | 0.0104
CNC(=O)OC(c1ccc(F)c(-c2ccc(OC)c(C(=O)N[C@@H]3C4CCC(/C4=C/C4CC4)[C@@H]3C(=O)Nc3ccc(F)c(C(F)(F)F)c3)c2)c1)C(F)(F)F (some centres unmarked) [compound 217] | 0.002
COc1cc(F)c(F)cc1C(=O)N[C@@H]1C2CCC(/C2=C/c2cccc(OCC(F)(F)F)c2)[C@@H]1C(=O)Nc1ccc(F)c(C(F)(F)F)c1 (some centres unmarked) [compound 28] | 0.4
COc1cc(F)c(F)cc1C(=O)N[C@@H]1C2CCC(/C2=C\Br)[C@@H]1C(=O)Nc1ccc(F)c(C(F)(F)F)c1 (some centres unmarked) [compound 10] | 1.1
COc1cc(F)c(F)cc1C(=O)N[C@@H]1C2CCC(/C2=C/c2ccco2)[C@@H]1C(=O)Nc1ccc(F)c(C(F)(F)F)c1 (some centres unmarked) [compound 123] | 0.21
COc1cc(C)c(C2=NOC3COCC23)cc1C(=O)N[C@H]1[C@@H](C(=O)Nc2ccc(F)c(C(F)(F)F)c2)[C@H]2CC[C@@H]1/C2=C\C1CC1 (some centres unmarked) [compound 532] | 0.0229
COc1ccc(C2=NOC3CC(C(C)(C)O)CC23)cc1C(=O)N[C@H]1[C@@H](C(=O)Nc2ccc(F)c(C(F)(F)F)c2)[C@H]2CC[C@@H]1/C2=C\C1CC1 (single isomer, unassigned) [compound 599] | 0.104
COc1ccc(-c2cc(C(=O)O)ccc2F)cc1C(=O)N[C@H]1[C@@H](C(=O)Nc2ccc(C)c(C(F)(F)F)c2)[C@H]2CC[C@@H]1/C2=C\C1CC1 [Example 265, 3′-(((1R,2R,3S,4R,Z)-7-(cyclopropylmethylene)-3-((4-methyl-3-(trifluoromethyl)phenyl)carbamoyl)bicyclo[2.2.1]heptan-2-yl)carbamoyl)-6-fluoro-4′-methoxy-[1,1′-biphenyl]-3-carboxylic acid] | 0.005
COc1ccc(-c2cccc3c2ccn3CC(C)(C)O)cc1C(=O)N[C@@H]1C2CCC(/C2=C/C2CCCC2)[C@@H]1C(=O)Nc1ccc(F)c(C(F)(F)F)c1 (some centres unmarked) [compound 895] | 0.0002
O=C(N[C@H]1[C@@H](C(=O)Nc2ccc(F)c(C(F)(F)F)c2)[C@H]2CC[C@@H]1/C2=C\C1CC1)c1cc(C2=NOC3COCC23)ccc1F (single isomer, unassigned) [compound 677] | 0.501
COc1ccc(C2=NOC3COCC23)cc1C(=O)N[C@H]1[C@@H](C(=O)N[C@@H](C)C2(C)CC2)[C@H]2CC[C@@H]1/C2=C\C1CC1 (some centres unmarked) [compound 609] | 0.13
COc1ccc(-c2cnc3n2CCC3O)cc1C(=O)N[C@H]1[C@@H](C(=O)Nc2ccc(F)c(C(F)(F)F)c2)[C@H]2CC[C@@H]1/C2=C\C1CC1 (some centres unmarked) [compound 754] | 0.0036
CC[C@@H](NC(=O)[C@@H]1[C@H](NC(=O)c2cc(C3=NOC4COCC34)ccc2OC)[C@@H]2CC[C@H]1/C2=C/C1CC1)C1CCC1 (some centres unmarked) [Example 578] | 0.0708
COc1c(F)cc(C2=NOC3CC(CO)CC23)cc1C(=O)N[C@H]1[C@@H](C(=O)N[C@H](C)C2(C)CC2)[C@H]2CC[C@@H]1/C2=C\CCC(F)(F)F (some centres unmarked) [compound 834] | 0.0038
COc1ccc(-c2cc(C(OC(=O)NC3CCC3)C(F)(F)F)ccc2F)cc1C(=O)N[C@@H]1C2CCC(/C2=C/C2CC2)[C@@H]1C(=O)Nc1ccc(F)c(C(F)(F)F)c1 (some centres unmarked) [compound 211] | 0.001
COc1ccc(C2=NOC3CC(O)(C(F)(F)F)CC23)cc1C(=O)N[C@H]1[C@@H](C(=O)N[C@H](C)C2(C)CC2)[C@H]2CC[C@@H]1/C2=C\C1CC1 (some centres unmarked) [compound 859] | 0.0018
COc1ccc(C2=NOC(CC(C)(C)O)C2)cc1C(=O)N[C@H]1[C@@H](C(=O)NCC(C)(C)C)[C@H]2CC[C@@H]1/C2=C\C1CC1 (some centres unmarked) [compound 660] | 0.35
COc1ccc(C2CCCN2C(=O)OC(C)(C)C)cc1C(=O)N[C@@H]1C2CCC(/C2=C/C2CC2)[C@@H]1C(=O)Nc1ccc(F)c(C(F)(F)F)c1 (single isomer, unassigned) [compound 694] | 0.796
CCC/C=C/C=C1\C2CCC1[C@H](C(=O)Nc1ccc(F)c(C(F)(F)F)c1)[C@@H]2NC(=O)c1cc(F)c(F)cc1OC (some centres unmarked) [compound 45] | 0.059
